From patent US20150184246A1, “BIOMARKERS OF RESPONSE TO PROTEASOME INHIBITORS” (Millennium Pharmaceuticals, Inc., priority 2011, published 2015)
Structures can show the parent of a compound that is named as a salt. Where two headings read alike, the source gives them in different places.

Legend:
[1] = tested on: hematological and solid tumor xenograft models; conditions: range of hematological and solid tumor xenograft models; cited from earlier work
[2] = tested on: t(4;14) translocation in MM; conditions: bortezomib alone or in combination; cited from earlier work
[3] = tested on: relapsed and refractory myeloma; conditions: cited from earlier work
[4] = tested on: multiple myeloma patients (NRAS / KRAS status of tumor); assay: Pharmacogenomic analysis: pre-treatment NRAS/KRAS mutation status versus response, time-to-progression and overall survival; type: in vivo, human
From the text: Patient samples and response criteria from patients participating in these studies, as well as the following additional studies described below were sought for use in pharmacogenomic analyses to identify markers associated with patient survival. […] The bone marrow aspirates were collected prior to the patient's treatment in the studies. […] Dexamethasone is a synthetic adrenocorticosteroid, CAS Registry No. […], administered as tablets (DECADRON® Merck & Co., Inc.). The trials are described in the following paragraphs.
Upon collection of patient bone marrow aspirate, the myeloma cells were enriched via rapid negative selection. The enrichment procedure employs a cocktail of cell-type specific antibodies coupled with an antibody that binds red blood cells RosetteSep (Stem Cell Technologies). The antibody cocktail has antibodies with the following specificity: CD14 (monocytes), CD2 (T and NK cells), CD33 (myeloid progenitors and monocytes), CD41 (platelets and megakaryocytes), CD45RA (naïve B and T cells) and CD66b (granulocytes). The antibodies cross-linked the non-myeloma cell types to the red blood cells in the samples. The bound cell types were removed using a modified ficoll density gradient. Myeloma cells were then collected and frozen. In the international studies, the first two samples from each site were collected and subjected to RNA isolation so that feedback on quantity and quality could be provided; ultimately Phase 2 and 3 trials provided a similar percentage of informative samples. Control bone marrow plasma cell samples were obtained from normal donors (AllCells, Berkeley, Calif.).
Flow through from the RNEASY® column was clarified by centrifugation, then concentrated about 10-fold with centrifugal ultrafilters (MICROCON® centrifugal filter device, YM-30 membrane (30 kDa limit), Millipore Corp. Billerica, Mass.). Impurities were removed using the Qiagen QIAMP® DNA Micro Kit. DNA from the sample was amplified using the Qiagen REPLI-G® WGA kit. Mutation status of DNA from 133 bone marrow tumor biopsies was determined by testing a panel of cancer genes and known tumor suppressors using the Sequenom (San Diego, Calif.) mass spectrometry genotype analysis system.
Rather, the platform interrogated tumor DNA only for specific sequences that were previously implicated in cancer (i.e. ‘hotspot’ mutations), relying largely on the prior knowledge that these are highly relevant in human cancer. The panel of mutations evaluated consisted of the ONCOCARTA™ version 1.0 and custom assays designed in collaboration with Sequenom and Millennium to expand the list of mutations surveyed to 514 known mutations in 41 oncogenes and tumor suppressor genes. Table 5 lists genes with mutations included in the panel and the number in parentheses 0 indicates the approximate number of mutations targeted in assays of the genes.
The custom assays were designed using TYPEPLEX® chemistry with single-base extension which determines the expected mass weight of the extend products to ensure separation between all potential peaks found within a multiplexed reaction. 15 nl of amplified and extended product is spotted on a 384 SpectroCHIP II using a Nanodispenser. A 3-point calibrant is added to every chip to ensure proper performance of the Sequenom Maldi-tof compact mass spectrometer. The SpectroCHIP II is placed in the Sequenom MALDI-TOF compact mass spectrometer. The mass spectrometer is set to fire a maximum of 9 acquisitions for each spot on the 384 well SpectroCHIP. TypePLEX Gold kit SpectroCHIP II is used following manufacturers recommended protocols.
Analysis is performed using Sequenom analysis software, MassARRAY® Typer Analyzer v4 with a mutation call filter of ≧8%, Signal:Noise>5 (background), followed by a manual inspections for false positives due to Impurities (ie Salts). Default threshold for positive mutant call is a minimal 10% mutant allele frequency, though signal as low as 3% may be detected. […]

[5] = tested on: relapsed multiple myeloma; conditions: cited from earlier work
[6] = tested on: relapsed or refractory multiple myeloma; assay: APEX phase 3 trial (039), bortezomib versus high-dose dexamethasone, EBMT response criteria; type: in vivo, human; conditions: for Complete response / Complete response achieved, number of patients / Median duration of response / One-year survival / complete response plus near-complete response / response rate (complete plus partial response (CR+PR)) / Median time to response: -039 trial; for Median time to response: both groups
Method: Patients who received dexamethasone were treated for a maximum of 280 days by the following method: received up to four 5-week treatment cycles, followed by up to five 4-week treatment cycles. Within each 5-week treatment cycle, the patient received dexamethasone 40 mg/day PO, once daily on Days 1 to 4, 9 to 12, and 17 to 20 of a 35-day cycle. Within each 4-week treatment cycle, the patient received dexamethasone 40 mg/day PO once daily on Days 1 to 4 of a 28 day cycle.
The following section presents more detailed information on the -039 trial. During the study, disease response was assessed according to the European Group for Blood and Marrow Transplant (EBMT) criteria as presented in Table 3.
Response and date of disease progression was determined by computer algorithm that integrated data from a central laboratory and case report forms from each clinical site, according to the Blade criteria (Table 3). […] See Richardson et al., supra.
Disease progression was determined by Blade criteria as described in Table 3 and above. […] The date of progression was determined by computer algorithm. P-value from log-rank test adjusted by actual randomization factors. See Richardson et al., supra.

[7] = tested on: multiple myeloma patients (t(4;14) / NRAS status of tumor); assay: t(4;14) and NRAS status versus response in patients with tumor subtype data; type: in vivo, human
From the text: Table 12 details the t(4;14) and NRAS status of the current dataset for patients both with tumor subtype data (Mulligan et al. (2007) Blood 109:3177-3188) and who were response-evaluable (n=40).

[8] = in this set of patients (pharmacogenomic set)
[9] = totals (all samples of the 2-by-2 table)
[10] = bortezomib n = 315, dexamethasone n = 312
[11] = bortezomib versus dexamethasone
[12] = NRAS mutant and not t(4; 14), N=32
[13] = NRAS wild type and not t(4; 14), N=32

Compound: CC(C)C[C@H](NC(=O)CNC(=O)c1cc(Cl)ccc1Cl)B1OC(=O)C(CC(=O)O)(CC(=O)O)O1 [Ixazomib citrate, 2,2′-{2-[(1R)-1-({[(2,5dichlorobenzoyl)amino]acetyl}amino)-3-methylbutyl]-5-oxo-1,3,2-dioxaborolane-4,4-diyl}diacetic acid]
- anti-tumor activity [1]: has anti-tumor activity

Compound: CC(C)C[C@H](NC(=O)[C@H](Cc1ccccc1)NC(=O)c1cnccn1)B(O)O [bortezomib, N(pyrazine)carbonyl-L-phenylalanine-L-leucine boronic acid]
- effect on poor prognosis associated with the t(4;14) translocation [2]: at least partially overcomes the poor prognosis
- CR+PR+MR, number of patients ([3]; Study -025, of 193 patients): 67 patients
- CR+PR, number of patients ([3]; Study -025, of 193 patients): 53 patients
- CR+PR rate to bortezomib alone ([3]; Study -025): 27%
- overall response rate (CR+PR+minimal response (MR)) to bortezomib alone ([3]; Study -025): 35%
- Non-response, number of patient samples ([4]; KRAS mutant): 8
- Response, number of patient samples ([4]; KRAS mutant): 9
- Non-response, number of patient samples ([4]; KRAS wild type): 34
- Response, number of patient samples ([4]; KRAS wild type): 23
- Non-response, number of patient samples ([4]; NRAS mutant): 14
- Response, number of patient samples ([4]; NRAS mutant): 1
- Non-response, number of patient samples ([4]; NRAS wild type): 28
- Response, number of patient samples ([4]; NRAS wild type): 31
- CR+PR rate [4, 8]: 32%
- overall response rate [4, 8]: 42.3%
- time-to-progression after bortezomib treatment ([4]; patients whose pre-treatment bone marrow tumor samples had NRAS mutations): significantly lower
- Non-response, number of patient samples [4, 9]: 42
- Response, number of patient samples [4, 9]: 32
- complete response (CR)+partial response (PR) rate ([5]; bortezomib 1.0 mg/m^2, Study -024): 30%
- complete response (CR)+partial response (PR) rate ([5]; bortezomib 1.3 mg/m^2, Study -024): 38%
- Complete response [6]: 6%
- Complete response achieved, number of patients [6]: 20 patients
- Median duration of response [6]: 8 months
- One-year survival [6]: 80%
- complete response plus near-complete response [6]: 13%
- response rate (complete plus partial response (CR+PR)) [6]: 38%
- Median time to response [6]: 43 days
- decrease in risk of death ([6]; bortezomib group versus dexamethasone, first year after enrollment): 41%
- Best Confirmed Response: CR + PR + MR [6, 10]: 146 (46) n (%)
- Best Confirmed Response: Complete Response [6, 10]: 20 (6) n (%)
- Best Confirmed Response: Minor Response [6, 10]: 25 (8) n (%)
- Best Confirmed Response: Near CR: IF+ [6, 10]: 21 (7) n (%)
- Best Confirmed Response: No Change [6, 10]: 137 (43) n (%)
- Best Confirmed Response: Not Evaluable [6, 10]: 10 (3) n (%)
- Best Confirmed Response: Overall Response Rate (CR + PR) [6, 10]: 121 (38) n (%)
- Best Confirmed Response: Progressive Disease [6, 10]: 22 (7) n (%)
- Best Confirmed Response: SWOG Remission [6, 10]: 46 (15) n (%)
- Difference (95% CI) in CR + PR + MR [6, 11]: 0.12 (0.04, 0.19)
- Difference (95% CI) in Complete Response [6, 11]: 0.06 (0.03, 0.09)
- Difference (95% CI) in Minor Response [6, 11]: −0.09 (−0.14, −0.04)
- Difference (95% CI) in Near CR: IF+ [6, 11]: 0.06 (0.03, 0.09)
- Difference (95% CI) in No Change [6, 11]: −0.04 (−0.12, 0.04)
- Difference (95% CI) in Not Evaluable [6, 11]: −0.01 (−0.04, 0.02)
- Difference (95% CI) in Overall Response Rate (CR + PR) [6, 11]: 0.20 (0.14, 0.27)
- Difference (95% CI) in Partial Response [6, 11]: 0.15 (0.08, 0.21)
- Difference (95% CI) in Progressive Disease [6, 11]: −0.06 (−0.11, −0.01)
- Difference (95% CI) in SWOG Remission [6, 11]: 0.09 (0.05, 0.14)
- Non-response, number of patients [7, 12]: 10
- Response, number of patients [7, 12]: 0
- Non-response, number of patients ([7]; NRAS mutant, n = 40 cohort): 10
- Response, number of patients ([7]; NRAS mutant, n = 40 cohort): 1
- Non-response, number of patients [7, 13]: 11
- Response, number of patients [7, 13]: 11
- Non-response, number of patients ([7]; NRAS wild type, n = 40 cohort): 13
- Response, number of patients ([7]; NRAS wild type, n = 40 cohort): 16
- Non-response, number of patients ([7]; Other subtypes, n = 40 cohort): 21
- Response, number of patients ([7]; Other subtypes, n = 40 cohort): 11
- Non-response, number of patients ([7]; t(4; 14), n = 40 cohort): 2
- Response, number of patients ([7]; t(4; 14), n = 40 cohort): 6

Compound: C[C@@H]1C[C@H]2[C@@H]3CCC4=CC(=O)C=C[C@]4(C)[C@@]3(F)[C@@H](O)C[C@]2(C)[C@@]1(O)C(=O)CO [dexamethasone]
- Non-response, number of patient samples ([4]; KRAS mutant): 6
- Response, number of patient samples ([4]; KRAS mutant): 3
- Non-response, number of patient samples ([4]; KRAS wild type): 14
- Response, number of patient samples ([4]; KRAS wild type): 8
- Non-response, number of patient samples ([4]; NRAS mutant): 3
- Response, number of patient samples ([4]; NRAS mutant): 3
- Non-response, number of patient samples ([4]; NRAS wild type): 17
- Response, number of patient samples ([4]; NRAS wild type): 8
- Non-response, number of patient samples [4, 9]: 20
- Response, number of patient samples [4, 9]: 11
- Complete response [6]: < 1%
- Complete response achieved, number of patients [6]: 2 patients
- Median duration of response [6]: 5.6 months
- One-year survival [6]: 66%
- complete response plus near-complete response [6]: 2%
- response rate (complete plus partial response (CR+PR)) [6]: 18%
- Median time to response [6]: 43 days
- Best Confirmed Response: CR + PR + MR [6, 10]: 108 (35) n (%)
- Best Confirmed Response: Complete Response [6, 10]: 2 (<1) n (%)
- Best Confirmed Response: Minor Response [6, 10]: 52 (17) n (%)
- Best Confirmed Response: Near CR: IF+ [6, 10]: 3 (<1) n (%)
- Best Confirmed Response: No Change [6, 10]: 149 (48) n (%)
- Best Confirmed Response: Not Evaluable [6, 10]: 14 (4) n (%)
- Best Confirmed Response: Overall Response Rate (CR + PR) [6, 10]: 56 (18) n (%)
- Best Confirmed Response: Partial Response [6, 10]: 54 (17) n (%)
- Best Confirmed Response: Progressive Disease [6, 10]: 41 (13) n (%)
- Best Confirmed Response: SWOG Remission [6, 10]: 17 (5) n (%)
